The subject of one series is NRG1-ERBB4 signaling. In words: Nrg1-ERBB4-PIK3R1 split TEV co-culture compound screen of the NIH Clinical Collection. Particulars: compounds at 10 μM, 24 h; PC12 split TEV assay cells co-cultured with Nrg1-expressing PC12 cells; analysed with cellHTS2. Format: cell-based, human.
Another series has as its target T1, Erbb4 (Mus musculus, UniProt Q61527).
T1 construct: from tissue; host or cells: prefrontal cortex of Nrg1-tg and wt mice (C57Bl/6)
In words: Western blot of phospho-Erbb4 in prefrontal cortex of spironolactone-treated mice. Format: in vivo. The following applies: Nrg1-tg mice, 50 mg/kg s.c. daily for 21 days, prefrontal cortex lysates. As to the method:
For the generation of lysates, the isolated tissue was immediately placed into cooled (4°C) sucrose buffer (320 mM sucrose, 10 mM Tris–HCl, 1 mM NaHCO3, 1 mM MgCl2, supplemented with 10 mM NaF, 1 mM […], 1 mM ZnCl2, 4.5 mM Na4P20_7 as phosphatase inhibitors, and the complete protease inhibitor cocktail (Roche)), homogenized using an ultra‐turrax (IKA GmbH, Staufen, Germany), sonicated (3 pulses for 10 s), and denatured for 10 min at 70°C in LDS sample buffer.
Each blot was replicated two times.
Treatment was continued throughout the behavioral analysis period.
(In general: In western blotting, separated proteins are transferred to a membrane and probed.)

On the set-up of series [1]: method as in Juruena et al, 2009. Particulars: ref Juruena et al, 2009; cited from earlier work.
Series [2] deals with Nrg1-tg and wt mice. Briefly: Fear conditioning. Type of series: in vivo, mouse. The following applies: 50 mg/kg s.c. daily. As to the method: (§1) For behavioral testing, age‐matched male mice (8–16 weeks) on C57Bl/6 background that constitutively overexpress the 2xHA‐tagged Nrg1 type III β1a isoform (Nrg1‐tg) under the control of the mouse Thy1.2 promoter (Velanac et al, 2012) and their wild‐type (wt) littermates as controls were used. Animals were group‐housed in the same ventilated sound‐attenuated rooms under a 12‐h light/12‐h dark schedule (lights on at 8:00 am) at an ambient temperature of 21°C with food and water available ad libitum. One week prior to experiments, mice were separated into single cages and habituated to the experimental rooms. To minimize the influence of the circadian rhythm on drug actions, the treatment groups were analyzed at balanced time points during the light phase. […] All animal experiments were conducted in accordance with NIH principles of laboratory animal care and were approved by the Government of Lower Saxony, Germany, in accordance with the German Animal Protection Law.
(§2) Treatment was continued throughout the behavioral analysis period. To avoid injection‐induced stress prior to behavioral testing, mice were injected in the afternoon, after the entire cohort has completed the behavioral paradigm.

The test system of series [3] is Nrg1-tg and wt mice. Briefly: Light-dark preference test. Format: in vivo, mouse. Particulars: 50 mg/kg s.c. daily. As for the experimental part:
as §1, §2

In series [4] the test system is Nrg1-tg and wt mice. Briefly: Tail suspension test. Format: in vivo, mouse. Particulars: 50 mg/kg s.c. daily. As to the method: as §1, §2
The conditions of series [5]: mouse, in vivo. As for the experimental part:
as §2

For the next series, the system named is GAL4/UAS system. In words: GAL4/UAS control assay. Format: cell-based. Particulars: GV and 10×UAS-Fluc plasmids in PC12 cells. An excerpt: All counts (407 compounds and 96 controls) from the Nrg1‐ERBB4‐PIK3R1 split TEV compound screen were plotted against the z‐score using Mondrian, with pathway activators displaying high values and inhibitors low values. For the secondary analysis, we selected all candidates that were at least three standard deviations away from the mean. […] For the GAL4/UAS assay, GAL4‐VP16 (GV) and 10×UAS firefly luciferase (10×UAS‐Fluc) plasmids were transfected into PC12 cells. For TEV protease activity assays, a transmembrane‐localized TEV protease (TM‐TEV) was expressed in PC12 cells with a transmembrane‐localized and TEV‐cleavable GV (TM‐tevS‐GV) and the 10×UAS‐Fluc reporter. […] EGFld was applied as Nrg1 stimulus. In both control assays, the assay activity (firefly luciferase, black lines) was similar to the toxicity levels (gray lines). Data are shown as mean, a nd error bars represent SEM, n = 6. The insets depict IC50 values in μM.

T1 sequence (Q61527 26-1308): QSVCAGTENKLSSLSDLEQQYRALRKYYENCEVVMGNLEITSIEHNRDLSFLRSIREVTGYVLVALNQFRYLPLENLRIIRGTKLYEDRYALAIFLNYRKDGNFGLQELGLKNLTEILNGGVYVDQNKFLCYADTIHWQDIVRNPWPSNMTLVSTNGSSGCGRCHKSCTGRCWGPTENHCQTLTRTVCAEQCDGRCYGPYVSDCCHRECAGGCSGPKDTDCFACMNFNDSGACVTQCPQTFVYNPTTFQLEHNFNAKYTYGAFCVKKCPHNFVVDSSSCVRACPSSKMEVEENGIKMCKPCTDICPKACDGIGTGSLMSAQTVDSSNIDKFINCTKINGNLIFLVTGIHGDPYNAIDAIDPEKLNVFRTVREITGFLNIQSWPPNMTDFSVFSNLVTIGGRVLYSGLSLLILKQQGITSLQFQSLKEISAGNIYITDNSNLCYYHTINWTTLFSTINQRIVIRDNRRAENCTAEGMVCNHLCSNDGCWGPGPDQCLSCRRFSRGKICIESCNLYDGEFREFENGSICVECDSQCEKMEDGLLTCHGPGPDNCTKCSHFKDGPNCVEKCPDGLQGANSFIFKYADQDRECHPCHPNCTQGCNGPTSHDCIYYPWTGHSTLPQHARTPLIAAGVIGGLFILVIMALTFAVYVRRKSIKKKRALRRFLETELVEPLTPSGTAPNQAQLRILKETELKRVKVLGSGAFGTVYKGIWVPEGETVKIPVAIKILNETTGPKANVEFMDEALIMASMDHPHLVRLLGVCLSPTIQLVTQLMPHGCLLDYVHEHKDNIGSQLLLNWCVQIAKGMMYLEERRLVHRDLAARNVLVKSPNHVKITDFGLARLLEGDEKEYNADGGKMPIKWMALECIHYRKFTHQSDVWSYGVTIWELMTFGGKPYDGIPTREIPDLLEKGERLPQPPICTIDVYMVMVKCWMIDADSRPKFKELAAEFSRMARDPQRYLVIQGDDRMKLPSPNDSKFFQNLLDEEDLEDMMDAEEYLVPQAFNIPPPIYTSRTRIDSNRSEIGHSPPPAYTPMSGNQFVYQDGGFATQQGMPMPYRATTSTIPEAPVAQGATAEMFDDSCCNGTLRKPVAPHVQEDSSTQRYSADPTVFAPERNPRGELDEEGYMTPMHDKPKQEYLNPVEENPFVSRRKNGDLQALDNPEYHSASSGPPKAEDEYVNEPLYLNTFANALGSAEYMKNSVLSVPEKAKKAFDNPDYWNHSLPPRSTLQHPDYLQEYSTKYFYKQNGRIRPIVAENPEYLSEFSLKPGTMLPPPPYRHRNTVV

Consider `CC(=O)S[C@@H]1CC2=CC(=O)CC[C@]2(C)[C@H]2CC[C@@]3(C)[C@@H](CC[C@@]34CCC(=O)O4)[C@H]12` [Spironolactone], for which, in the series with NRG1-ERBB4 signaling, the Z-SCORE worked out at 9.25. Besides, on Erbb4, the “phospho-Erbb4 levels (p-ERBB4-Y1284 antibody)” value is “robust reduction”. The “anxiety in a small group of patients suffering from bipolar disorder” value in series [1] is given as “partially improved”. In the series with Nrg1-tg and wt mice [2], the cue memory result is reported as “neither genotype nor treatment‐dependent alterations”. The “freezing in the contextual fear memory test” value in the series with Nrg1-tg and wt mice [2] (Nrg1-tg mice) is on record as “non‐significant reduction in freezing”. For the same compound, the “time in the light compartment” value with Nrg1-tg and wt mice [3] is on record as “spent more time in the light compartment”. For the same compound, in the series with Nrg1-tg and wt mice [4], the “time active in the tail suspension test (genotype effect)” value is recorded as “independent of treatment”. Further, the “side effect in treated mice” value in series [5] is reported as “no major side effect”. Moreover, in the series with GAL4/UAS system, the “effect on activity of the GAL4/UAS system” value is reported as “does not affect activities of control assays”.
